{
  "source": "PubChem BioAssay AID1259407",
  "about": "(Chemical Carcinogenesis Research Information System (CCRIS), 2018)",
  "system": "CCRIS mutagenicity, Ames/micronucleus/aberration tests",
  "test": "CCRIS mutagenicity studies",
  "key": {"[1]": {"details": "Test System: AMES SALMONELLA TYPHIMURIUM, Strain/Indicator: TA98, Metabolic Activation: NONE, Method: PREINCUBATION"}, "[2]": {"details": "Test System: AMES SALMONELLA TYPHIMURIUM, Strain/Indicator: TA100, Metabolic Activation: NONE, Method: STANDARD PLATE"}, "[3]": {"details": "Test System: AMES SALMONELLA TYPHIMURIUM, Strain/Indicator: TA98, Metabolic Activation: NONE, Method: STANDARD PLATE"}, "[4]": {"details": "Test System: AMES SALMONELLA TYPHIMURIUM, Strain/Indicator: TA98, Metabolic Activation: RAT, LIVER, S-9, AROCLOR 1254, Method: STANDARD PLATE"}, "[5]": {"details": "Test System: AMES SALMONELLA TYPHIMURIUM, Strain/Indicator: TA100, Metabolic Activation: RAT, LIVER, S-9, AROCLOR 1254, Method: STANDARD PLATE"}, "[6]": {"details": "Test System: AMES SALMONELLA TYPHIMURIUM, Strain/Indicator: TA1530, Metabolic Activation: NONE, Method: STANDARD PLATE"}, "[7]": {"details": "Test System: AMES SALMONELLA TYPHIMURIUM, Strain/Indicator: TA1530, Metabolic Activation: RAT, LIVER, S-9, AROCLOR 1254, Method: STANDARD PLATE"}, "[8]": {"details": "Test System: AMES SALMONELLA TYPHIMURIUM, Strain/Indicator: TA1537, Metabolic Activation: NONE, Method: STANDARD PLATE"}, "[9]": {"details": "Test System: AMES SALMONELLA TYPHIMURIUM, Strain/Indicator: TA1537, Metabolic Activation: RAT, LIVER, S-9, AROCLOR 1254, Method: STANDARD PLATE"}},
  "note": "The source made the active and inactive calls. No rule for the calls is given here.",
  "data": [
    {"smiles": "CCC=O", "values": [
      {"measurement": "mutagenic call", "setting": "[1]", "value": "inactive; negative"},
      {"measurement": "mutagenic call", "setting": "Test System: AMES SALMONELLA TYPHIMURIUM, Strain/Indicator: TA98, Metabolic Activation: RAT, LIVER, S-9, AROCLOR 1254, Method: PREINCUBATION", "value": "inactive; negative"},
      {"measurement": "mutagenic call", "setting": "Test System: AMES SALMONELLA TYPHIMURIUM, Strain/Indicator: TA100, Metabolic Activation: NONE, Method: PREINCUBATION", "value": "inactive; negative"},
      {"measurement": "mutagenic call", "setting": "Test System: AMES SALMONELLA TYPHIMURIUM, Strain/Indicator: TA100, Metabolic Activation: RAT LIVER S-9, AROCLOR 1254, Method: PREINCUBATION", "value": "inactive; negative"},
      {"measurement": "mutagenic call", "setting": "Test System: AMES SALMONELLA TYPHIMURIUM, Strain/Indicator: TA100, Metabolic Activation: RAT, LIVER, S-9, AROCLOR 1254, Method: PREINCUBATION", "value": "inactive; negative"},
      {"measurement": "mutagenic call", "setting": "Test System: AMES SALMONELLA TYPHIMURIUM, Strain/Indicator: TA102, Metabolic Activation: NONE, Method: PREINCUBATION", "value": "inactive; negative"},
      {"measurement": "mutagenic call", "setting": "Test System: AMES SALMONELLA TYPHIMURIUM, Strain/Indicator: TA102, Metabolic Activation: RAT LIVER S-9, AROCLOR 1254, Method: PREINCUBATION", "value": "inactive; negative"},
      {"measurement": "mutagenic call", "setting": "Test System: AMES SALMONELLA TYPHIMURIUM, Strain/Indicator: TA102, Metabolic Activation: RAT, LIVER, S-9, AROCLOR 1254, Method: PREINCUBATION", "value": "inactive; negative"},
      {"measurement": "mutagenic call", "setting": "Test System: AMES SALMONELLA TYPHIMURIUM, Strain/Indicator: TA104, Metabolic Activation: NONE, Method: PREINCUBATION", "value": "inactive; negative"},
      {"measurement": "mutagenic call", "setting": "Test System: AMES SALMONELLA TYPHIMURIUM, Strain/Indicator: TA104, Metabolic Activation: RAT LIVER S-9, AROCLOR 1254, Method: PREINCUBATION", "value": "inactive; negative"},
      {"measurement": "mutagenic call", "setting": "Test System: CHINESE HAMSTER V-79, Strain/Indicator: V-79/6-THIOGUANINE (HGPRT), Metabolic Activation: NONE, Method: REPLATING", "value": "active; positive"},
      {"measurement": "mutagenic call", "setting": "Test System: CHINESE HAMSTER V-79, Strain/Indicator: V-79/6-THIOGUANINE, Metabolic Activation: NONE", "value": "inactive; negative"},
      {"measurement": "mutagenic call", "setting": "Test System: CHINESE HAMSTER V-79, Strain/Indicator: V-79/OUABAIN (NA/K), Metabolic Activation: NONE, Method: REPLATING", "value": "active; positive"},
      {"measurement": "mutagenic call", "setting": "Test System: UDS HUMAN HEPATOCYTES, Strain/Indicator: THY INCORP, Metabolic Activation: NONE, Method: AUTORADIOGRAPHY", "value": "inactive; negative"},
      {"measurement": "mutagenic call", "setting": "Test System: UDS RAT HEPATOCYTES, Strain/Indicator: THY INCORP, Metabolic Activation: NONE, Method: AUTORADIOGRAPHY", "value": "active; positive"}
    ]},
    {"smiles": "c1cc2c3oc3cc3ccc4c5oc5cc1c4c32", "values": [
      {"measurement": "mutagenic call", "setting": "[2]", "value": "active; positive"}
    ]},
    {"smiles": "CC1(c2ccccc2)C(=O)c2ccccc2N1[O]", "note": "(centres undefined)", "values": [
      {"measurement": "mutagenic call", "setting": "[3]", "value": "inactive; negative"},
      {"measurement": "mutagenic call", "setting": "[2]", "value": "inactive; negative"},
      {"measurement": "mutagenic call", "setting": "Test System: AMES SALMONELLA TYPHIMURIUM, Strain/Indicator: TA102, Metabolic Activation: NONE, Method: STANDARD PLATE", "value": "inactive; negative"}
    ]},
    {"smiles": "C1CCC2OCCOCCOCCOC3CCCCC3OCCOCCOCCOC2C1", "note": "(centres undefined)", "values": [
      {"measurement": "mutagenic call", "setting": "[3]", "value": "inactive; negative"},
      {"measurement": "mutagenic call", "setting": "[4]", "value": "inactive; negative"},
      {"measurement": "mutagenic call", "setting": "[2]", "value": "inactive; negative"},
      {"measurement": "mutagenic call", "setting": "[5]", "value": "inactive; negative"},
      {"measurement": "mutagenic call", "setting": "[6]", "value": "inactive; negative"},
      {"measurement": "mutagenic call", "setting": "[7]", "value": "inactive; negative"},
      {"measurement": "mutagenic call", "setting": "[8]", "value": "inactive; negative"},
      {"measurement": "mutagenic call", "setting": "[9]", "value": "inactive; negative"}
    ]},
    {"smiles": "[O]=[U](=[O])=[O]", "values": [
      {"measurement": "mutagenic call", "setting": "Test System: Human bronchial epithelial (BEP2D) cells, Metabolic Activation: None, Method: Morphological transformation", "value": "active; positive. depleted uranium transformed cell lines exhibited significant chromoso"}
    ]},
    {"smiles": "CC1=C2C(=CC(C)(C)[C@@H]2O)C(=O)[C@](C)(O)C12CC2", "values": [
      {"measurement": "mutagenic call", "setting": "[1]", "value": "active; positive"}
    ]},
    {"smiles": "C1COCCOCCOCCOCCO1", "values": [
      {"measurement": "mutagenic call", "setting": "[3]", "value": "inactive; negative"},
      {"measurement": "mutagenic call", "setting": "[4]", "value": "inactive; negative"},
      {"measurement": "mutagenic call", "setting": "[2]", "value": "inactive; negative"},
      {"measurement": "mutagenic call", "setting": "[5]", "value": "inactive; negative"},
      {"measurement": "mutagenic call", "setting": "[6]", "value": "inactive; negative"},
      {"measurement": "mutagenic call", "setting": "[7]", "value": "inactive; negative"},
      {"measurement": "mutagenic call", "setting": "[8]", "value": "inactive; negative"},
      {"measurement": "mutagenic call", "setting": "[9]", "value": "inactive; negative"}
    ]},
    {"smiles": "C[n+]1c2ccccc2cc2c(N)cccc21", "values": [
      {"measurement": "mutagenic call", "setting": "Test System: AMES SALMONELLA TYPHIMURIUM, Strain/Indicator: TA1535, Metabolic Activation: NONE, Method: PREINCUBATION", "value": "inactive; negative"},
      {"measurement": "mutagenic call", "setting": "Test System: AMES SALMONELLA TYPHIMURIUM, Strain/Indicator: TA1535, Metabolic Activation: RAT, LIVER, S-9, TETRACHLOROBIPHENYL, Method: PREINCUBATION", "value": "inactive; negative"},
      {"measurement": "mutagenic call", "setting": "Test System: AMES SALMONELLA TYPHIMURIUM, Strain/Indicator: TA1537, Metabolic Activation: NONE, Method: PREINCUBATION", "value": "active; positive"},
      {"measurement": "mutagenic call", "setting": "Test System: AMES SALMONELLA TYPHIMURIUM, Strain/Indicator: TA1537, Metabolic Activation: RAT, LIVER, S-9, TETRACHLOROBIPHENYL, Method: PREINCUBATION", "value": "active; positive"},
      {"measurement": "mutagenic call", "setting": "Test System: AMES SALMONELLA TYPHIMURIUM, Strain/Indicator: TA1538, Metabolic Activation: NONE, Method: PREINCUBATION", "value": "inactive; negative"},
      {"measurement": "mutagenic call", "setting": "Test System: AMES SALMONELLA TYPHIMURIUM, Strain/Indicator: TA1538, Metabolic Activation: RAT, LIVER, S-9, TETRACHLOROBIPHENYL, Method: PREINCUBATION", "value": "inactive; negative"},
      {"measurement": "mutagenic call", "setting": "Test System: AMES SALMONELLA TYPHIMURIUM, Strain/Indicator: TA1977, Metabolic Activation: NONE, Method: PREINCUBATION", "value": "active; positive"}
    ]}
  ]
}
